Assay results: patent US20200289667A1, “Targeting Macrophages to Modulate Electrical Conduction in the Heart” (The General Hospital Corporation, priority 2016, published 2020)

What was measured:
Format in all cases: in vivo, mouse
[1] = test system: AV block; assay: Surface ECG of Cd11b^DTR mice with AV block after intravenous drug administration; details: Cd11b^DTR mice with second and third degree AV block; intravenous (atropine 1 mg/kg, epinephrine 2 mg/kg, isoproterenol 20 mg/kg)
Procedure: (§1) Mice were anesthetized as described above and surface ECG was recorded using subcutaneous electrodes connected to the Animal Bio amplifier and PowerLab station (AD Instruments). The ECG channel was filtered between 0.3 and 1000 Hz and analyzed using LabChart Pro software. Atropine (1 mg/kg), epinephrine (2 mg/kg) or isoproterenol (20 mg/kg) were administered intravenously, and changes were examined before and after injection.

[2] = test system: AV node macrophages; assay: Flow cytometric quantification of AV node macrophages after depletion
Procedure: (§2) Mice were put into parabiosis using either C57BL/6 and Cx3cr1^GFP/+ or Cd11b^DTR and Cx3cr1^GFP/+ mice as described previously (12). Tamoxifen was given as a solution in corn oil (Sigma) to Cx3cr1^wt/CreER ChR2^fl/fl or Cx3cr1^wt/CreER Cx43^fl/fl mice by intraperitoneal injection. Animals received 5 doses of 2 mg of tamoxifen with a separation of 24 hours between doses. Cx3cr1^wt/CreER ChR2^wt/fl and Cx3cr1^wt/CreER Cx43^fl/fl mice were analyzed 2 and 7 days post-tamoxifen treatment, respectively. Macrophage depletion was achieved by a single intraperitoneal injection of diphtheria toxin (DT, 25 ng/g body weight) in Cd11b^DTR mice (12). C57BL/6 mice injected with DT were used as controls. Clodronate liposomes were kindly provided by Dr. Kory J. Lavine and contained 18 mg of clodronate per mL of liposomes. Depletion studies were performed by intraperitoneal injection of 100 μL/30 g mouse (13).
Peripheral blood for flow cytometric analysis was collected by retro-orbital bleeding using heparinized capillary tubes (BD Diagnostics) and red blood cells were lysed with 1× red blood cell lysis buffer (BioLegend). To determine electrolyte levels, blood was collected by cardiac puncture and electrolytes were measured on serum with EasyLyte PLUS analyzer (Medica). For organ harvest, mice were perfused through the LV with 10 mL of ice-cold PBS. […]

[3] = test system: AV node conduction; assay: AV node conduction by ECG telemetry, surface ECG and EP study after macrophage depletion
Procedure: as §2
EP studies were performed under general anaesthesia induced by administering 5% isoflurane driven by an oxygen source into an induction chamber. Anaesthesia was subsequently maintained with 1-2% isoflurane in 95% O2. For EP study, an octapolar catheter (EPR-800) was inserted into the right jugular vein and positioned in the right atrium and ventricle. Programmed electrical stimulation was performed using a standard protocol with 120 ms and 100 ms drive trains and single extrastimuli to measure function of the AV node and the conduction properties of atrial and ventricular tissue. The Wenckebach cycle length was measured by progressively faster atrial pacing rates. Retrograde (VA) conduction cycle length was measured by progressively slower ventricular pacing rates. Sinus node function was determined by measuring the sinus node recovery time (SNRT) following 30 seconds of pacing at three cycle lengths (120, 100 and 80 ms). SNRT was divided by the basic cycle length to adjust for the intrinsic heart rate.
Continuous ambulatory ECG telemetry was performed by implanting an ETA-F10 transmitter during general anaesthesia with isoflurane. The transmitter was implanted in the abdomen and the leads were tunneled subcutaneously to the upper right and lower left chest resulting in a lead II position. Telemetry data was recorded continuously via a receiver placed under the mouse cage. Data analysis was performed using LabChart Pro software.
as §1

CC(C)NCC(O)c1ccc(O)c(O)c1 (stereo not drawn) [isoproterenol]
attenuation of AV block [1]: did not attenuate

diphtheria toxin [DT]
number of AV node macrophages ([2]; C57BL/6 control mice, three days after DT injection): did not alter | time of maximum depletion of AV node macrophages ([2]; Cd11b^DTR mice, single intraperitoneal dose of 25 ng/g body weight): three | induction of AV block ([3]; C57BL/6 control mice, surface ECG): did not induce AV block | progression of AV block ([3]; Cd11b^DTR mice, ECG telemetry, after DT injection): progressively evolved into second and third degree AV block | onset of first degree AV block (all mice) ([3]; Cd11b^DTR mice, ECG telemetry, single dose 25 ng/g): one | induction of AV block ([3]; Cx3cr1^GFP/+ mice joined in parabiosis with Cd11b^DTR mice, surface ECG three days after DT): did not induce AV block

CN1[C@@H]2CC[C@H]1C[C@@H](OC(=O)C(CO)c1ccccc1)C2 (stereo partly drawn) [atropine]
attenuation of AV block [1]: did not attenuate

CNC[C@H](O)c1ccc(O)c(O)c1 [epinephrine]
attenuation of AV block [1]: did not attenuate
